Results as given in US4824843A, “Substituted amide inhibitors of cholesterol absorption” (Warner-Lambert Company, priority 1987, dated 1989).
Counter-ions that a name gives are not always drawn.

Target: T1, acyl-CoA: cholesterol acyltransferase (ACAT) (Oryctolagus cuniculus, UniProt G1SFD9)
T1 construct: rabbit intestinal microsomal fraction; from tissue; host or cells: rabbit intestinal microsomal fraction
T1 sequence (G1SFD9 1-524): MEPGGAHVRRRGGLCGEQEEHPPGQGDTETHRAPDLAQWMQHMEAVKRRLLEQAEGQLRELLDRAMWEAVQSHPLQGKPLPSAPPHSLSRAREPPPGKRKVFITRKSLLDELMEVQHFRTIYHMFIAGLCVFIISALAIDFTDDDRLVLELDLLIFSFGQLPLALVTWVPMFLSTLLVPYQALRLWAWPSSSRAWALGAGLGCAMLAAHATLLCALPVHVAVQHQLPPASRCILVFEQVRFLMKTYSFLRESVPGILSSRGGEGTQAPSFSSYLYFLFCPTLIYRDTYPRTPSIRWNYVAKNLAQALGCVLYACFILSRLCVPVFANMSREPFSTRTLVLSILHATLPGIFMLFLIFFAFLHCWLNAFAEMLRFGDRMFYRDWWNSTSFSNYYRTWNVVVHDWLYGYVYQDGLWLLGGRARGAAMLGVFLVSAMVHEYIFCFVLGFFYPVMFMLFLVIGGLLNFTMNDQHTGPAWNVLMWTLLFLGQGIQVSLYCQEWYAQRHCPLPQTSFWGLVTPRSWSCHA
Test: In vitro inhibition of cholesterol esterification by ACAT (cholesteryl oleate formation), rabbit intestinal microsomal fraction
Assay type: biochemical
Settings: endogenous cholesterol of rabbit intestinal microsomal fraction and exogenous 14C-oleoyl-CoA; read-out: IC50 (concentration of test compound required to inhibit cholesteryl oleate formation to 50% of control)
Description: The compounds of the present invention were tested for their ability to inhibit the esterification of cholesterol by the enzyme acyl-CoA: cholesterol acyltransferase (ACAT). The data in the table below is expressed as IC50 values, i.e. the concentration of test compound required to inhibit cholesteryl oleate formation to 50% of control.
The in vitro test employed is more fully described in Field, F. J. and Salome, R. G., Biochemica et Biophysica Acta, 712, pp. 557-570 (1982). The assay evaluates the ability of a test compound to inhibit the esterification of cholesterol using endogenous cholesterol of a rabbit intestinal microsomal fraction and exogenous ^14 C-oleoyl-CoA as reactants.

| IC50 | Compound |
| --- | --- |
| 24 µM | Cc1ccc(C)c(OCCCC(C)(C)C(=O)Nc2cccc(C3=NC(C)(C)CO3)c2C)c1 [Example 1, N-[3-(4,5-Dihydro-4,4-dimethyl-2-oxazolyl)-2-methylphenyl]-5-(2,5-dimethylphenoxy)-2,2-dimethylpentanamide] |
| 22 µM | Cc1ccc(C)c(OCCCC(C)(C)C(=O)Nc2cccc(C3=NC(C)(C)CO3)c2)c1 [Example 1a, N-[3-(4,5-Dihydro-4,4-dimethyl-2-oxazolyl)phenyl]-5-(2,5-dimethylphenoxy)-2,2-dimethylpentanamide] |
| 5.5 µM | Cc1ccc(C)c(OCCCC(C)(C)C(=O)Nc2cc(C3=NC(C)(C)CO3)ccc2C)c1 [Example 1b, N-[5-(4,5-Dihydro-4,4-dimethyl-2-oxazolyl)-2-methylphenyl]-5-(2,5-dimethylphenoxy)-2,2-dimethylpentanamide] |
| 10 µM | Cc1ccc(C)c(OCCCC(C)(C)C(=O)Nc2cccc(C3=NCCO3)c2C)c1 [Example 1c, N-[3-(4,5-Dihydro-2-oxazolyl)-2-methylphenyl]-5-(2,5-dimethylphenoxy)-2,2-dimethylpentanamide] |
| 1 µM | Cc1ccc(C)c(OCCCC(C)(C)C(=O)Nc2ccc(C)c(CC3=NC(C)(C)CO3)c2)c1 [Example 1d, N-[3-[(4,5-Dihydro-4,4-dimethyl-2-oxazolyl)methyl]-4-methylphenyl]-5-(2,5-dimethylphenoxy)-2,2-dimethylpentanamide] |
| 3.7 µM | COc1ccc(NC(=O)C(C)(C)CCCOc2cc(C)ccc2C)cc1CCC1=NC(C)(C)CO1 [Example 2, N-[3-[2-(4,5-Dihydro-4,4-dimethyl-2-oxazolyl)ethyl]-4-methoxyphenyl]-5-(2,5-dimethylphenoxy)-2,2-dimethylpentanamide] |
| 9.4 µM | Cc1ccc(C)c(OCCCC(C)(C)C(=O)Nc2cccc(C=CC3=NC(C)(C)CO3)c2)c1 [Example 2a, N-[3-[2-(4,5-Dihydro-4,4-dimethyl-2-oxazolyl)ethenyl]phenyl]-5-(2,5-dimethylphenoxy)-2,2-dimethylpentanamide] |
| 8 µM | COc1ccc(/C=C/C2=NC(C)(C)CO2)cc1NC(=O)C(C)(C)CCCOc1cc(C)ccc1C [Example 2b, (E)-N-[5-[2-(4,5-Dihydro-4,4-dimethyl-2-oxazolyl)ethenyl]-2-methoxyphenyl]-5-(2,5-dimethylphenoxy)-2,2-dimethylpentanamide] |
| 5.5 µM | COc1ccc(CC2=NC(C)(C)CO2)cc1NC(=O)C(C)(C)CCCOc1cc(C)ccc1C [Example 3, N-[5-[(4,5-Dihydro-4,4-dimethyl-2-oxazolyl)methyl]-2-methoxyphenyl]-5-(2,5-dimethylphenoxy)-2,2-dimethylpentanamide] |
| 9.2 µM | Cc1ccc(C)c(OCCCC(C)(C)C(=O)Nc2cccc(OCC3=NC(C)(C)CO3)c2)c1 [Example 3a, N-[3-[(4,5-Dihydro-4,4-dimethyl-2-oxazolyl)methoxy]phenyl]-5-(2,5-dimethylphenoxy)-2,2-dimethylpentanamide] |
| 0.8 µM | Cc1ccc(C)c(OCCCC(C)(C)C(=O)Nc2cc(CC3=NC(C)(C)CO3)ccc2C)c1 [Example 3b, N-[5-[(4,5-Dihydro-4,4-dimethyl-2-oxazolyl)methyl]-2-methylphenyl]-5-(2,5-dimethylphenoxy)-2,2-dimethylpentanamide] |
| 20 µM | Cc1ccc(C)c(OCCCC(C)(C)C(=O)Nc2cccc(C3=NCCCO3)c2)c1 [Example 4, N-[3-(5,6-Dihydro-4H-1,3-oxazin-2-yl)phenyl]-5-(2,5-dimethylphenoxy)-2,2-dimethylpentanamide] |
| 9 µM | COc1ccc(C2=NC(C)(C)CO2)cc1NC(=O)C(C)(C)CCCOc1cc(C)ccc1C [Example 4b, N-[5-(4,5-Dihydro-4,4-dimethyl-2-oxazolyl)-2-methoxyphenyl]-5-(2,5-dimethylphenoxy)-2,2-dimethylpentanamide] |
| 19 µM | COc1ccc(NC(=O)C(C)(C)CCCOc2cc(C)ccc2C)cc1C1=NC(C)(C)CO1 [Example 4d, N-[3-(4,5-Dihydro-4,4-dimethyl-2-oxazolyl)-4-methoxyphenyl]-5-(2,5-dimethylphenoxy)-2,2-dimethylpentanamide] |
| 9 µM | COc1cc(OC)c(C2=NC(C)(C)CO2)cc1NC(=O)C(C)(C)CCCOc1cc(C)ccc1C [Example 4e, N-[5-(4,5-Dihydro-4,4-dimethyl-2-oxazolyl)-2,4-dimethoxyphenyl]-5-(2,5-dimethylphenoxy)-2,2-dimethylpentanamide] |
| 18 µM | COc1ccc(C2=NCCCO2)cc1NC(=O)C(C)(C)CCCOc1cc(C)ccc1C [Example 4f, N-[5-(5,6-Dihydro-4H-1,3-oxazin-2-yl)-2-methoxyphenyl]-5-(2,5-dimethylphenoxy)-2,2-dimethylpentanamide] |
| 13 µM | COC(=N)c1cccc(NC(=O)C(C)(C)CCCOc2cc(C)ccc2C)c1 [Example 4g, 5-(2,5-Dimethylphenoxy)-N-[3-(iminomethoxymethyl)phenyl]-2,2-dimethylpentanamide monohydrochloride] |
| 23 µM | Cc1ccc(C)c(OCCCC(C)(C)C(=O)Nc2cccc(-c3ncco3)c2)c1 [Example 4h, 5-(2,5-Dimethylphenoxy)-2,2-dimethyl-N-[3-(2-oxazolyl)phenyl]-pentanamide] |
| 21 µM | Cc1ccc(C)c(OCCCC(C)(C)C(=O)Nc2cccc(-c3nnc(C)o3)c2)c1 [Example 5, 5-(2,5-dimethylphenoxy)-2,2-dimethyl-N-[3-(5-methyl-1,3,4-oxadiazol-2-yl)phenyl]pentanamide] |
